In ChEMBL document CHEMBL5390244, “Riboflavin interactions with the chicken isolated carrier protein” (Bioorg Med Chem Lett, 2023) one finds Activity data, which are given here for 2 compounds.

The source made the active and inactive calls. The rule behind the calls is not given here.

Experiment [1] addresses T1, Riboflavin-binding protein (Gallus gallus) (UniProt P02752).
T1 sequence (whole entry): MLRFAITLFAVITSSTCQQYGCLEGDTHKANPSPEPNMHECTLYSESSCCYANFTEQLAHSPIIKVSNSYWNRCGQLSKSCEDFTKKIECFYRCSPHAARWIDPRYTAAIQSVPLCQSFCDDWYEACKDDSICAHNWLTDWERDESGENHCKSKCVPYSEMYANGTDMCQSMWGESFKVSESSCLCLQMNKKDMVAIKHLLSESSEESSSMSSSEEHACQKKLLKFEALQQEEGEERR
The experiment is described as follows: Binding affinity to chicken riboflavin binding protein assessed as decrease in fluorescence intensity at upto 250 uM by fluorescence based assay.

Experiment [2] concerns the target T1, Riboflavin-binding protein (Gallus gallus). The experiment can be described thus: Binding affinity to chicken riboflavin binding protein assessed as binding energy by fluorescence based analysis.

On to `Cc1cc2nc3c(=O)[nH]c(=O)nc-3n(CCCCCCO)c2cc1C`, for which the result in experiment [1] was Active. Besides, in experiment [2], the Activity turned out to be 2 kcal/mol.
For `Cc1cc2nc3c(=O)[nH]c(=O)nc-3n(C[C@H](O)[C@H](O)[C@H](O)CO)c2cc1C`, the result in experiment [1] was Active. The Activity in experiment [2] was -11.9 kcal/mol.
